In ChEMBL document CHEMBL1141489, “A highly efficient route to enantiomerically pure l-N-Bz-Pmp(t-Bu)2-OH and incorporation into a peptide-based protein tyrosine phosphatase inhibitor” (Bioorg Med Chem Lett, 2008):
Activity calls are given as the source filed them. The rule behind the calls is not given here. Square brackets hold non-standard residues; d marks the D form. Peptide text beside a SMILES is read from it. Pmp = N[C@@H](Cc1ccc(CP(=O)(O)O)cc1)C(=O)O

How the values were obtained:
[1] = target: T1, Receptor-type tyrosine-protein phosphatase C (Homo sapiens, UniProt P08575); assay: Inhibition of CD45
T1 sequence (P08575 whole entry): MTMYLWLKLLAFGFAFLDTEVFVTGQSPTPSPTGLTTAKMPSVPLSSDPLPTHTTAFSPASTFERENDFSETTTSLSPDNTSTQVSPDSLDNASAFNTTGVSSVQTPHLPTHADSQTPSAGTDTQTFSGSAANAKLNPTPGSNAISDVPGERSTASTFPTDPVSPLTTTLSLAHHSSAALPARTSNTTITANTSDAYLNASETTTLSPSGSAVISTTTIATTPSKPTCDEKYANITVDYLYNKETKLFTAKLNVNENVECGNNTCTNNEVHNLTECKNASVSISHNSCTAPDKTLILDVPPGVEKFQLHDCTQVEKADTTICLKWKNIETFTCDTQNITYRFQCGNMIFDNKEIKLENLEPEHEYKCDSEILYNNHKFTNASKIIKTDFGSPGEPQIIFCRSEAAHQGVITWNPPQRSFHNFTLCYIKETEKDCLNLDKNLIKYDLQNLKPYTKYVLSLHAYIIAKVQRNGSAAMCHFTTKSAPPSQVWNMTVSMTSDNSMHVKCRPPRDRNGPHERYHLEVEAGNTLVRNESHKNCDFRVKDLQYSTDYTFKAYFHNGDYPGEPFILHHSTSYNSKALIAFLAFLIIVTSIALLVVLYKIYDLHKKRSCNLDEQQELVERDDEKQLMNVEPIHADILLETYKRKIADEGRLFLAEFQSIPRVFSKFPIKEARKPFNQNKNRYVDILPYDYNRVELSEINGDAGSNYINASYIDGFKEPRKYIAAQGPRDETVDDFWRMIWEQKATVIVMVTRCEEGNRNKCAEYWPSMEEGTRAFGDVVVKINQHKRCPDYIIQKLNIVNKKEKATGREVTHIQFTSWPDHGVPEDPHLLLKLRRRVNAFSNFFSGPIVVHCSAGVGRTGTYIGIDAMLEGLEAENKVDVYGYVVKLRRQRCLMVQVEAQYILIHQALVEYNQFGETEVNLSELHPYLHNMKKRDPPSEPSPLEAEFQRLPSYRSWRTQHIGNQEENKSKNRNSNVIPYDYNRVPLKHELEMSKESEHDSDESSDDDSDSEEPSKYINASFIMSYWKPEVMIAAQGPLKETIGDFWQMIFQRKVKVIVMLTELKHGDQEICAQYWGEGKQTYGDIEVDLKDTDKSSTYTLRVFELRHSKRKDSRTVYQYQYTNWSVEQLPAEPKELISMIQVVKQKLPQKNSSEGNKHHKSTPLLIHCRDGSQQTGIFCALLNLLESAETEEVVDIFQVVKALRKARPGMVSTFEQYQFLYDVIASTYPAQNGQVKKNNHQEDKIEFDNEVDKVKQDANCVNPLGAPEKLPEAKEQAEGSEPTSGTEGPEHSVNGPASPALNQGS

[2] = target: T2, Tyrosine-protein phosphatase non-receptor type 2 (Homo sapiens) (UniProt P17706); assay: Inhibition of TCPTP upto 120 uM
T2 sequence (whole entry): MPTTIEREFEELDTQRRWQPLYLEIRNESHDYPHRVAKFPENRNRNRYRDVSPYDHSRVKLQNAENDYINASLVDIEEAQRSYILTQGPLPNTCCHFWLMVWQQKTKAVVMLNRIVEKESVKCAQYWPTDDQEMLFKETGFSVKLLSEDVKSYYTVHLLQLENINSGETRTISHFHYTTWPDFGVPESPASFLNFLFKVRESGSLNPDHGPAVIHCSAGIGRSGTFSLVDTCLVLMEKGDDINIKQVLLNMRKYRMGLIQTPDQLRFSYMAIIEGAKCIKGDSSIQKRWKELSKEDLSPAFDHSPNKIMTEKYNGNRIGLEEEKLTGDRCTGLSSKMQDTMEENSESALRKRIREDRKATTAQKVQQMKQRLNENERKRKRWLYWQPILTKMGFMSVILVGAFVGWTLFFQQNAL

**Q.** Which IC50 [1] does the source give for `CC(=O)N[C@H](C(=O)N[C@@H](CCC(=O)O)C(=O)NCC(=O)N[C@@H](CCC(N)=O)C(=O)N[C@@H](Cc1ccc(CP(=O)(O)O)cc1)C(=O)N[C@@H](CCC(N)=O)C(=O)N1CCC[C@H]1C(=O)N[C@@H](CCC(N)=O)C(=O)N1CCC[C@H]1C(N)=O)[C@@H](C)O` (Ac-TEGQ[Pmp]QPQP-NH2) here?
**A.** Its IC50 is 100 µM.

**Q.** What about the Activity [2] of the same compound?
**A.** The Activity was “inactive”.
